Measured values reported in the CheMixHub ionic liquid set.

Assay: xn = mol fraction of the nth substance listed

CCCC[N+](CCCC)(CCCC)CCCC.[Cl-] + CC(C)C[C@H](N)C(=O)O
100 kPa
Settings	electrical conductivity, 313.15 K [S/m]	electrical conductivity, 323.15 K [S/m]	electrical conductivity, 333.15 K [S/m]	electrical conductivity, 343.15 K [S/m]	electrical conductivity, 353.15 K [S/m]	viscosity, 313.15 K [mPa·s]	viscosity, 323.15 K [mPa·s]	viscosity, 333.15 K [mPa·s]	viscosity, 343.15 K [mPa·s]	viscosity, 353.15 K [mPa·s]
x1 = 0.8889	0.0188	0.0377	0.0631	0.0885	0.12	1070	444	219	123	76
x1 = 0.9	0.0149	0.027	0.0441	0.068	0.0891	940	517	259	146	88.1
x1 = 0.9091	0.0194	0.0302	0.054	0.0761	0.0971	890	410	197	114	99

CS(C)=O + CC(=O)[O-].CC[NH2+]CC
Settings	viscosity [mPa·s]
298.15 K, 101 kPa, x2 = 0	2.01

O=C(O)C(=O)O + C[N+](C)(C)Cc1ccccc1.[Cl-]
101 kPa, x2 = 0.5
Settings	electrical conductivity [S/m]	viscosity [mPa·s]
293.14 K	0.2104	–
293.17 K	–	1971
298.07 K	0.3284	–
298.09 K	–	1362
303.08 K	0.4611	–
303.11 K	–	714
308.09 K	0.6182	–
308.12 K	–	452
312.95 K	–	266.7
313.1 K	0.7996	–
317.96 K	–	197.3
318.18 K	1.025	–
323.06 K	–	166.6
323.19 K	1.246	–
327.98 K	–	58.6
328.11 K	1.505	–
332.99 K	–	27.7
333.03 K	1.774	–

CCCC[N+](CCCC)(CCCC)CCCC.[Cl-] + CNCCO
101.3 kPa
Settings	viscosity [mPa·s]
293.15 K, x1 = 0.09104	29.5
298.15 K, x1 = 0.09104	22.9
298.15 K, x1 = 0.111	26.1
303.15 K, x1 = 0.1441	27
308.15 K, x1 = 0.1441	21.1
313.15 K, x1 = 0.1441	17.1
318.15 K, x1 = 0.09104	11.4
328.15 K, x1 = 0.111	7.84
